These are literature values, as cited in patent publication US20220175695A1, “FORTIFICANT COMPOSITION” (Conopco, Inc., d/b/a UNILEVER, priority 2019, published 2022).

The conditions of this data set: without the composition.

In the case of Vitamin A, the “time Vitamin A is stable in the presence of water” value was less than 4 h.
